# In patent US20150225377A1, “VEGFR3 INHIBITORS” (CANCER THERAPEUTICS CRC PTY LIMITED, priority 2012, published 2015):
# Tests used:
# [1] = target: T1, VEGFR3 cytoplasmic domain (Homo sapiens, UniProt P35916); assay: VEGFR3 biochemical assay (AlphaScreen); details: GST-VEGFR3 cytoplasmic domain, 500 μM ATP (modified form: His-fusion, 1 μM ATP)
# T1 construct: VEGFR3 cytoplasmic domain (amino acids 798-1298) was purchased as N-terminal GST-fusion protein; GST (N); purchased
# Description: Compounds of the invention may be tested for in vitro activity in the following assay: A biotin labelled peptide is used as substrate (amino acid sequence: Biotin-[…]NH2). VEGFR3 cytoplasmic domain (amino acids 798-1298) was purchased as N-terminal GST-fusion protein (“the enzyme”). The 15 μL assay reactions are run in Greiner brand white 384-well low volume plates. All reactions contained 10 mM HEPES pH 7.4, 10 mM MgCl2, 0.01% (v/v) Tween-20, 50 μM Na3VO4, 0.01% (w/v) albumin from chicken egg white, 1 mM Dithiothreitol, 111 nM peptide substrate, 500 μM ATP, and 3.8 ng/reaction enzyme, with the enzyme being omitted from negative control reactions. Compounds were added in a volume of […] from dilution series prepared in DMSO, positive and negative control reactions receiving the same volume DMSO without compound. The plates were sealed with adhesive seals and incubated for 90 minutes at 30 degree Celsius. The reactions were stopped with the detection reagents added at the same time as follows: Product formation was quantified as amplified luminescence between PerkinElmer AlphaScreen™ beads, using Streptavidin-coated donor and anti-phosphotyrosine (P-Tyr-100) acceptor beads. To each reaction, 5 μL containing 10 mM HEPES pH 7.4, 25 mM NaCl, 100 mM EDTA, 0.01% (v/v) Tween-20, and 6.25 μg/mL of each bead type were added. Plates were incubated for 6 hours before being read on a PerkinElmer EnVision™ plate reader in HTS Alphascreen™ mode. IC50 values were obtained by calculating percent inhibition (% I) for each reaction relative to controls on the same plate (% I=(I-CN)/(CP-CN) where CN/CP are the averages of the negative/positive reactions, respectively), then fitting the % I data vs. compound concentration [I] to % I=(A+((B−A)/(1+((C/[I])̂D)))) where A is the lower asymptote, B is the upper asymptote, C is the IC50 value, and D is the slope factor.
# The above assay was also run in a modified form in some cases (indicated below with *). In these cases, VEGFR3 cytoplasmic domain (amino acids 818-1177, lacking 949-1002 of UniProt accession number P35916) was expressed and purified as N-terminal Hexa-His-fusion protein (“the enzyme”), rather than using the N-terminal GST-fusion protein. The assay conditions were the same as above but with 1 μM ATP and 8 ng/reaction of the enzyme.
# P397Y-FAK = target: T2, P397Y-FAK (Homo sapiens, UniProt Q05397); assay: P397Y-FAK inhibition MSD platform cellular biomarker assay; format: cell-based; details: MDA-231-LNA cells, 1 hour compound
# T2 construct: endogenous in cells; host or cells: MDA-231-LNA
# T2 sequence (Q05397 2-1052 limits assumed, stated change not applied): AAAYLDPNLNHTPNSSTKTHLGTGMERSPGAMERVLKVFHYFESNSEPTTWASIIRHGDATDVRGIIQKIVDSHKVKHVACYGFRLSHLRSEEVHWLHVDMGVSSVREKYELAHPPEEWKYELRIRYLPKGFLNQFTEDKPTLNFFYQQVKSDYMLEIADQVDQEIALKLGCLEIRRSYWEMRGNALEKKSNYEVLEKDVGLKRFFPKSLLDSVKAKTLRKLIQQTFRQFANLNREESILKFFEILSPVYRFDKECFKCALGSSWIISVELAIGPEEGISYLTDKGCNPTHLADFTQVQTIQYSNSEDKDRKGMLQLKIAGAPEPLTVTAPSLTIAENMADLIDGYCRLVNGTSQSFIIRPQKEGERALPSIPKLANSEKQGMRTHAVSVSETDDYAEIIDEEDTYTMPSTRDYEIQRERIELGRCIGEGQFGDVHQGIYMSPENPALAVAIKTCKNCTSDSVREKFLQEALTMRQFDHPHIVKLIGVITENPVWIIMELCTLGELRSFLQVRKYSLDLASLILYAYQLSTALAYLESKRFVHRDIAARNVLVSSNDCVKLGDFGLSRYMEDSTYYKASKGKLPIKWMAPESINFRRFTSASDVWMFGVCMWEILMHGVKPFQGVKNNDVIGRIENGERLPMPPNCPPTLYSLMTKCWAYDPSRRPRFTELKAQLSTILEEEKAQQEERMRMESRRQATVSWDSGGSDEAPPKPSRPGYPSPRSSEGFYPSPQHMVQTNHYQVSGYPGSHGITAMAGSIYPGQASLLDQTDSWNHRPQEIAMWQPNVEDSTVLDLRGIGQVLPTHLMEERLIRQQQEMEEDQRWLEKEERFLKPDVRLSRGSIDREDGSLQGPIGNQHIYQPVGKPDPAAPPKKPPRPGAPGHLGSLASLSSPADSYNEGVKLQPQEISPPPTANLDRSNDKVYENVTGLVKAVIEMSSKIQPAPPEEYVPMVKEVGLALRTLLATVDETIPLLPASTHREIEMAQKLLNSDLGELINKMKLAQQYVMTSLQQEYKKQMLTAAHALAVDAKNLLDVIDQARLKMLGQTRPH
# Description: 96-well plates (cat#MA6000, Meso Scale Discovery) are coated with 30 μL/well of mouse monoclonal FAK antibody [63D5] (cat#ab72140, Abcam) pre-diluted in PBS to a concentration of 1 mg/mL. The plates are sealed with adhesive film and incubated for 16 hours at 4° C. The antibody is then flicked out of the plates and 150 μL of 3% [w/v] Blocker A (cat#R93AA-1, Meso Scale Discovery) is added. The plates are resealed with adhesive film and incubated at room temperature on a shaker set at medium speed for 2 hours. The plates are then washed three times with a solution containing 50 mM Tris-HCl pH 7.5, 0.15 M NaCl and 0.02% Tween-20, before cell lysate addition described below.
# Cells are split 1:2 into T150 cell culture flasks 2 days prior to compound treatment. On the day prior to compound treatment, 200 μL media containing 20,000 cells is seeded into all wells of white, clear-bottom, TC treated, pclear, 96-well microtitre plates (cat#655098, Greiner Bio-One), and the plates are incubated at 37° C. and 5% CO2 for […]. 1 pUwell of compound is then added from dilution series prepared in DMSO. Negative control wells receive the same volume of DMSO without compounds, and positive control wells receive 2 μM of a control compound in the same volume of DMSO. Cells are treated for 1 hour at 37° C. and 5% CO2. The media/compounds are then flicked off and 55 pUwell of ice-cold complete lysis buffer is added. Complete lysis buffer is prepared by adding 1 tablet PhosSTOP complete phosphatase inhibitor (cat#04906837001, Roche) and 1 tablet Complete, Mini, EDTA-free, protease inhibitor (cat#04693159001, Roche) per 10 mL of incomplete lysis buffer (150 mM NaCl, 20 mM Tris-HCl pH 7.5, 1 mM EDTA, 1 mM EGTA, 1% Triton-X 100). Plates are incubated on ice for 30 minutes, with 30 seconds high speed plate shaking every 5 minutes. 40 μL/well of cell lysate is transferred to the coated, blocked and washed 96-well microtitre plates described above. The 96-well plates are sealed with adhesive film and incubated for 16 hours at 4° C. The plates are then washed three times with a solution containing 50 mM Tris-HCl pH 7.5, 0.15 M NaCl and 0.02% Tween-20 and tapped dry. 25 μL/well of detection solution (1% [w/v] Blocker A (cat#R93AA-1, Meso Scale Discovery) in 50 mM Tris-HCl pH 7.5, 0.15 M NaCl and 0.02% Tween-20, with 1:600 rabbit polyclonal FAK phospho Y397 antibody (cat#ab39967, Abcam), 1:1000 anti-rabbit sulfo-tag antibody (cat#R32AB-1 Meso Scale Discovery) and 1:40 reconstituted Blocker D-M (cat#D609-0100, Rockland Immunochemicals for Research)) is added, and the plates resealed with adhesive film and incubated for 1 hour at room temperature on a plate shaker set to medium speed. Plates are then washed three times with a solution containing 50 mM Tris-HCl pH 7.5, 0.15 M NaCl and 0.02% Tween-20 and tapped dry. 150 μL/well of Read Buffer T+Surfactant (cat#R92TC-1, Meso Scale Discovery) is then added, and pFAK-397 levels quantified using a Meso Scale Discovery SECTOR Imager 6000 instrument.
# T1 sequence (P35916 798-1298 isoform P35916-1): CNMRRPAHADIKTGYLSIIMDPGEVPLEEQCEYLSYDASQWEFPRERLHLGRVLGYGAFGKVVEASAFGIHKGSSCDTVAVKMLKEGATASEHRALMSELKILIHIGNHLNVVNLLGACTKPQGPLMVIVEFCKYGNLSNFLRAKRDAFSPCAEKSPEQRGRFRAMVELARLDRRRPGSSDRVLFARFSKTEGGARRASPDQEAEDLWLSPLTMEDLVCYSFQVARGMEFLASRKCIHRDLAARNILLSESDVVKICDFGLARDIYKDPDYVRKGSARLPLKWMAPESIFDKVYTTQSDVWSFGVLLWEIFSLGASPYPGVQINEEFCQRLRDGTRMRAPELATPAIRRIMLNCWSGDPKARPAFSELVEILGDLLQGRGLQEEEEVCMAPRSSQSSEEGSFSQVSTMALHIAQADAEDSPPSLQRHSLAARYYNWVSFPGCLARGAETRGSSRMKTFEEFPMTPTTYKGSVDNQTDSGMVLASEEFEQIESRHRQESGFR
IC50 [1] [nM],IC50 (P397Y-FAK) [nM],SMILES
39,–,"Cc1cnc(Nc2ccc(N3CCNCC3)cc2)nc1CCc1ccccc1CC(N)=O [Compound 2, 2-(2-(2-(5-methyl-2-((4-(piperazin-1-yl)phenyl)amino)pyrimidin-4-yl)ethyl)phenyl)acetamide]"
97,62,"NCc1ccc(Nc2ncc(C(F)(F)F)c(CCc3ccccc3CC(N)=O)n2)cc1 [Compound 3, 2-(2-(2-(2-((4-(Aminomethyl)phenyl)amino)-5-(trifluoromethyl)pyrimidin-4-yl)ethyl)phenyl)acetamide]"
28,> 2000,"Cc1cnc(Nc2ccc(C3CCN(C)CC3)nc2)nc1CCc1ccccc1CC(N)=O [Compound 5, 2-(2-(2-(5-methyl-2-((6-(1-methylpiperidin-4-yl)pyridin-3-yl)amino)pyrimidin-4-yl)ethyl)phenyl)acetamide]"
23,940,"NC(=O)Cc1ccccc1CCc1nc(Nc2ccc(C(=O)N3CCNCC3)cc2)ncc1C(F)(F)F [Compound 6, 2-(2-(2-(2-((4-(piperazine-1-carbonyl)phenyl)amino)-5-(trifluoromethyl)pyrimidin-4-yl)ethyl)phenyl)acetamide]"
26,16,"Cc1cc(Nc2ncc(C(F)(F)F)c(CCc3ccccc3CC(N)=O)n2)ccc1C1CCNCC1 [Compound 11, 2-(2-(2-(2-((3-methyl-4-(piperidin-4-yl)phenyl)amino)-5-(trifluoromethyl)pyrimidin-4-yl)ethyl)phenyl)acetamide]"
20,30,"Cc1cc(Nc2ncc(C(F)(F)F)c(CCc3ccccc3CC(N)=O)n2)ccc1C1CCN(C)CC1 [Compound 12, 2-(2-(2-(2-((3-methyl-4-(1-methylpiperidin-4-yl)phenyl)amino)-5-(trifluoromethyl)pyrimidin-4-yl)ethyl)phenyl)acetamide]"
22,> 2000,"Cc1cnc(Nc2ccc(C3CCNCC3)cc2)nc1CCc1ccccc1CC(N)=O [Compound 16, 2-(2-(2-(5-methyl-2-((4-(piperidin-4-yl)phenyl)amino)pyrimidin-4-yl)ethyl)phenyl)acetamide]"
46,25,"CC(N)c1ccc(Nc2ncc(C(F)(F)F)c(CCc3ccccc3CC(N)=O)n2)cc1 (stereo not drawn) [Compound 18, 2-(2-(2-(2-(4-(1-aminoethyl)phenylamino)-5-(trifluoromethyl)pyrimidin-4-yl)ethyl)phenyl)acetamide]"
24,> 2000,"Cc1cnc(Nc2cnn(C)c2)nc1CCc1ccccc1CC(N)=O [Compound 28, 2-(2-(2-(5-methyl-2-((1-methyl-^1H-pyrazol-4-yl)amino)pyrimidin-4-yl)ethyl)phenyl)acetamide]"
28,> 2000,"Cc1cnc(Nc2cnn(C3CCNCC3)c2)nc1CCc1ccccc1CC(N)=O [Compound 33, 2-(2-(2-(5-Methyl-2-((1-(piperidin-4-yl)-^1H-pyrazol-4-yl)amino)pyrimidin-4-yl)ethyl)phenyl)acetamide]"

SMILES,IC50 [1] [nM],IC50 (P397Y-FAK) [nM]
"Cc1cnc(Nc2ccc(C3CCNCC3)nc2)nc1CCc1ccccc1CC(N)=O [Compound 4, 2-(2-(2-(5-methyl-2-((6-(piperidin-4-yl)pyridin-3-yl)amino)pyrimidin-4-yl)ethyl)phenyl)acetamide]",35,–
"Cc1cnc(Nc2cccnc2)nc1CCc1ccccc1CC(N)=O [Compound 24, 2-(2-(2-(5-methyl-2-(pyridin-3-ylamino)pyrimidin-4-yl)ethyl)phenyl)acetamide]",34,> 2000
"Cc1cnc(Nc2ccc(OC3CCNCC3)cc2)nc1CCc1ccccc1CC(N)=O [Compound 26, 2-(2-(2-(5-methyl-2-((4-(piperidin-4-yloxy)phenyl)amino)pyrimidin-4-yl)ethyl)phenyl)acetamide]",24,> 2000
"Cc1cnc(Nc2ccc(C3(N)COC3)cc2)nc1CCc1ccccc1CC(N)=O [Compound 31, 2-(2-(2-(2-(4-(3-aminooxetan-3-yl)phenylamino)-5-methylpyrimidin-4-yl)ethyl)phenyl)acetamide]",23,> 2000
"CC(N)c1ccc(Nc2ncc(Cl)c(CCc3ccccc3CC(N)=O)n2)cc1 (stereo not drawn) [Compound 37, 2-(2-(2-(2-(4-(1-aminoethyl)phenylamino)-5-chloropyrimidin-4-yl)ethyl)phenyl)acetamide]",12,–
